Columns and labels:
INS-1E cells = experiment: Ins-1E cell proliferation assay (BrdU incorporation); format: cell-based, rat; settings: maximum at 1 μM
Description: The proliferation rate of Ins-1E cells was determined by monitoring DNA synthesis using a 5-bromo-2′-deoxyuridine (BrdU) incorporation assay. BrdU is a halogenated nucleotide analogue of thymidine that is incorporated into DNA during the S-phase of the cell cycle. Pulse-labeling of DNA with BrdU and subsequent immunohistochemical detection of labeled nuclei was used to study the rate of cell proliferation. The treatment of INS-1E cells with 4-Azakenpaullone for 24 hours increases BrdU incorporation of Ins-1E cells in a concentration dependent manner, reaching a maximum of about 1.4 fold between 5 μM and 10 μM 4-AKP.
The proliferation of Ins-1E insulinoma cells was determined by monitoring DNA synthesis as an indirect parameter of cell proliferation. The incorporation of the thymidine analogue 5-bromo-2′-deoxyuridine (BrdU) during replication into cellular DNA was used to label the DNA of mitotically active cells. After its incorporation into DNA, BrdU was detected by immunoassay.
10,000 Ins-1E cells were seeded per 96-well (black 96-well tissue culture plates, Falcon #353948) in 100 μl culture medium (RPMI 1640 containing 11 mM glucose, 5% FCS, 10 mM HEPES, 50 μM 2-mercaptoethanol, 1 mM MEM sodium pyruvate, 100 U/ml penicillin, 100 μg/ml streptomycin) and cultivated at 37° C., 5% CO2 in humidified atmosphere for 3 days. Media was changed to 100 μl starvation medium (culture medium with only 5 mM glucose, 1% FCS) and the cells were re-incubated for 1 day. Then media was exchanged to starvation medium containing test substances and the cells were further incubated for 24 h. For the last 4 hours BrdU was added to reach a concentration of 10 μM. Cell proliferation ELISA (Cell Proliferation ELISA, BrdU, chemiluminescence, Roche, cat. No. 1669915) was performed according to the manufacturers guidelines.

primary rat beta cells = experiment: Replication of primary rat beta cells (Ki67/C-peptide immunofluorescence); format: cell-based; settings: islets treated for 72 hours
Description: Cells expressing the proliferation marker Ki67 as well as C-peptide were considered to be replicating beta cells. The percentage of replicating beta cells in islets not exposed to compound 10c (Co.) and islet treated for 72 hours with the indicated amounts of compound 10c was determined by immunofluorescence microscopy.
Isolated rat islets were cultured for 72 hours in the presence of compound 10c before the islets were disaggregated and dispersed on microscope slides. Replicating beta cells were identified by immunohistological staining of dispersed islets with antibodies against C-peptide, a proteolytic fragment of proinsulin, and the cell division marker Ki-67.
Islets of Langerhans are isolated by standard Liberase digestion method from rat pancreata (Liberase™ Cl enzyme blend BMB Cat. #1814-435, ROCHE).
Freshly isolated islets are cultured in vitro with or without the addition of the factor of interest for 48 h. Following the culture period the islets are dispersed gently by titration in Ca^2+ and Mg^2+ free PBS. […]
An Olympus microscope equipped with an automatic image acquisition device (Olympus) is used for counting of C-peptide positive beta cells. Proliferating C-peptide/Ki-67 double positive beta cells are counted manually. Thereby the fraction of proliferating beta cells can be determined.

What does the source list for N#Cc1ccc2[nH]c3c(c2c1)CC(=O)Nc1cccnc1-3 [Compound 10c, 6-Oxo-5,6,7,12-tetrahydropyrido[3′,2′:2,3]azepino[4,5-b]indole-9-carbonitrile]?
BrdU incorporation relative to untreated controls (maximum) (INS-1E cells): about 1.5 fold; replication of primary rat beta cells in culture (primary rat beta cells): stimulates the replication
